Data taken from PMC12259267, “Disruption of the KLHL37–N-Myc complex restores N-Myc degradation and arrests neuroblastoma growth in mouse models” (The Journal of Clinical Investigation, 2025).

Target: T1, KLHL37 (Homo sapiens, UniProt O14682)
T1 construct: gene ENC1; recombinant KLHL37-His (full-length cDNA, pET-28a, E. coli)
T1 sequence (O14682 1-589): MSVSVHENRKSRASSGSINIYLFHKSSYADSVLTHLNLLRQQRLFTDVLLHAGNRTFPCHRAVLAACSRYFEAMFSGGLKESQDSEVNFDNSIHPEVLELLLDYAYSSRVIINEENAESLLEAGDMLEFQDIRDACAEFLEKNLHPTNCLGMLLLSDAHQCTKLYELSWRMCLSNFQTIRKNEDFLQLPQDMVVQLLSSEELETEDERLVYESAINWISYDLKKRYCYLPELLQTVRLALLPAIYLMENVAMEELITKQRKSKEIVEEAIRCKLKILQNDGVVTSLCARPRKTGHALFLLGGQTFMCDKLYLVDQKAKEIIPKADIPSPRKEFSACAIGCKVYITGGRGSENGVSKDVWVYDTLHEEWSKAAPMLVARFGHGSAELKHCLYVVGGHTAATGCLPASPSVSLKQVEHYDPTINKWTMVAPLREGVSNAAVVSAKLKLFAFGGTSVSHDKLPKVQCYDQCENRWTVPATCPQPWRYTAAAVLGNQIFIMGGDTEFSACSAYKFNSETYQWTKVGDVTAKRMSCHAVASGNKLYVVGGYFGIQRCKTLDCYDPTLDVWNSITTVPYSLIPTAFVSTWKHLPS
Assay: SPR (Biacore X100, KLHL37-His immobilized on CM5 chip)
Type: binding

With `CC1(C)CC[C@]2(NC(=O)C(C)(F)F)CC[C@]3(C)[C@H](C(=O)C=C4[C@@]5(C)C=C(C#N)C(=O)C(C)(C)[C@@H]5CC[C@]43C)[C@@H]2C1` [RTA-408] the Kd was 15.2 µM.
